Where two headings read alike, the source gives them in different places.
How the values were obtained:
MCF7 (TCDD) = assay: MTT cytotoxicity assay, TCDD-induced MCF7 cells; assay type: cell-based, human; conditions: for AF = activation factor = IC50 MCF7/MCF7 (TCDD): ratio of IC50 values
Procedure: (§1) The antiproliferative activity of the resveratrol analogues was investigated using a human breast cell line panel, which has been characterised for CYP1 expression in our laboratories. IC50 values for both cis- and trans-isomers were determined using a standard 3-[4,5-dimethylthiazol-2-yl]-2,5-diphenyl tetrazolium bromide (MTT) cell viability assay and are shown in Table 1 (trans-stilbene analogues) and Table 2 (cis-stilbene analogues).
(§2) MCF7 cells are both ER positive and Ah receptor positive and have been well documented for their CYP1 expression, and it is known that treatment with TCDD elevates CYP1A1 and CYP1B1 expression. The cells were treated with DMSO (0.1%) for 24 h for constitutive expression, whereas for inducible CYP1 expression, the cells were treated with TCDD (10 nM) for 24 h.
(§3) A standard MTT (3-[4,5-dimethylthiazol-2-yl]-2,5-diphenyl tetrazolium bromide) cell viability assay was employed to evaluate the cytotoxicity of the stilbenes prepared. The MTT assay is a rapid quantitative spectrophotometric method for determining cell growth (viability) due to necrosis or apoptosis in monolayer-cultured cell lines in response to external factors. It is widely employed to evaluate the cytotoxicity of potential medicinal agents.
(§4) MCF7 cells were grown in RPMI-1640 medium with phenol red and 10% (v/v) heat-inactivated (heated to 56 °C for 45 min) foetal calf serum. MDA-468 cells were grown in RPMI-1640 medium with 10% (v/v) heat-inactivated foetal calf serum and L-glutamine (2 mM) without phenol red. MCF-10A cells were grown in Dulbecco’s modified Eagle’s medium/ Ham’s F-12 medium (1:1) with 5% (v/v) heat-inactivated foetal calf serum, epidermal growth factor (20 ng/mL), insulin ([…]) and hydrocortisone (500 ng/mL). Cells were maintained at 37 °C, 5% CO2/95% air with 100% humidity and passaged every 2–3 days using trypsin EDTA solution (0.25% w/v). Adhered cells at sub confluence were harvested for experimental use.
(§5) Aliquots of cell suspensions (100 µL at 2 × 10^3 cells per ml) were dispensed into sterile 96-well microtiter flat-bottomed plates. For the MDA468 and MCF10A cell lines, the plates were incubated at 37 °C, 5% CO2/95% air with 100% humidity for 24 h prior to the addition of test compounds. For MCF7 cells, after allowing approximately 4 h for cells to adhere, 100 µL of medium containing TCDD (from 100 mM stock in DMSO) or medium with 0.2% (v/v) DMSO was added to give a final concentration of 10 nM TCDD and 0.1% (v/v) DMSO. After 24 h, the medium was aspirated and replaced with fresh medium (100 µL) before the addition of test compounds.
(§6) Then, 100 µL aliquots of test compounds were added within 30 min into the wells from a 100 mM stock solution in DMSO and serially diluted to give final concentrations of […], 0.01, 0.003, 0.001 and 0.0003 µM. […] The cells were allowed to grow for 96 h at 5% CO2, 37 °C, to give 80–90% confluence in the control wells, after which 50 µL of 2 mg/mL MTT (final concentration 0.4 mg/mL) in sterile phosphate buffer was added to each well and the plates were further incubated for 2 h. All medium was aspirated and the formazan precipitate generated by viable cells was solubilised by 150 µL of DMSO. All the plates were vortexed and the absorbance at 540 nm was determined using a SpectraMax M5 plate reader (Molecular Devices, Wokingham, UK).
(§7) Results were expressed as a percentage of the control value versus the negative logarithm of the molar drug concentration range using GraphPad Prism (Version 5.00). Relative toxicities of each compound within each cell line were expressed as 50% of growth inhibition (IC50). All determinations were carried out in quadruplicate.

MDA468 = assay: MTT cytotoxicity assay, MDA468 cells; assay type: cell-based, human; conditions: for IC50: Homo sapiens, read-out: IC50 MDA468; for TS = tumour selectivity = IC50 MCF10A/IC50 MDA468: ratio of IC50 values
Procedure: as §1
MDA468 cells represent an aggressive multi-drug-resistant tumour type and are ER negative but are aryl hydrocarbon (Ah) receptor positive in the presence of TCDD [46].
as §3, §4, §5, §6, §7

MCF7 = assay: MTT cytotoxicity assay, MCF7 cells (uninduced); assay type: cell-based, human; conditions: read-out: IC50 MCF7
Procedure: as §1, §2, §3, §4, §5, §6, §7

MCF10A = assay: MTT cytotoxicity assay, MCF10A non-tumour control cells; assay type: cell-based; conditions: Homo sapiens, MCF-10A, read-out: IC50 MCF10A
Procedure: as §1
MCF10A cells are non-tumourigenic human mammary epithelial in origin which have been spontaneously immortalised without chemical intervention. CYP1 activity in MCF10A cells is negligible. […] Thus, MCF10A cell line is commonly used as a control in cytotoxicity assays.
as §3, §4, §5, §6, §7

[1] = Homo sapiens, MCF7, MTT assay, 96 h incubation, cells induced with 10 nM TCDD for 24 h, read-out: IC50 MCF7 (TCDD)
[2] = Homo sapiens, MCF7, MTT assay, 96 h incubation, 37 °C, means of quadruplicate
[3] = MTT assay, 96 h incubation, non-tumour control cells
[4] = Homo sapiens, MCF7, 96 h, MTT assay, 96 h incubation, 37 °C, means of quadruplicate
[5] = 96 h, MTT assay, 96 h incubation, non-tumour control cells

| Structure (SMILES) | IC50 (MCF7 (TCDD); [1]) [µM] | IC50 (MDA468; MTT assay, 96 h incubation) [µM] | IC50 (MCF7; [2]) [µM] | IC50 (MCF10A; [3]) [µM] | TS = tumour selectivity = IC50 MCF10A/IC50 MDA468 (MDA468) | IC50 (MCF7; [4]) [µM] | IC50 (MCF10A; [5]) [µM] | also measured |
| --- | --- | --- | --- | --- | --- | --- | --- | --- |
| COc1ccc(/C=C\c2cc(OC)cc(OC)c2)cc1 [DMU210] | 24 | > 100 | 26 | > 100 |  |  |  |  |
| COc1ccc(/C=C\c2cc(OC)c(OC)c(OC)c2)cc1OC [DMU1024] | 9 | 6 |  |  | 2 | 9 | 10 |  |
| COc1cc(/C=C/c2ccc(O)cc2)cc(OC)c1O [DMU295] | 4.2 | 5.1 |  |  | 10 | 50 | 51 |  |
| CCOc1ccc(/C=C/c2cc(OC)c(OC)c(OC)c2)cc1 [DMU260] | 5 | 1.8 | 5 | 3.7 | two |  |  | AF = activation factor = IC50 MCF7/MCF7 (TCDD) (MCF7 (TCDD)): one; TS = tumour selectivity = IC50 MCF10A/IC50 MDA468 (MDA468; listed as 260): 2 |
| COc1cc(/C=C\c2ccc(Cl)cc2)cc(OC)c1OC [DMU556] | 0.8 | 7 | 0.8 | 35 | 5 |  |  |  |
| COc1ccc(/C=C/c2cccc(OC)c2)cc1 [DMU241] | 24 | > 100 | 27 | > 100 |  |  |  |  |
| Oc1ccc(/C=C/c2cc(O)cc(O)c2)cc1 [Resveratrol, (E)-4,3′,5′-trihydroxy stilbene] | 33 | 29 | 31 | 50 | 1.7 |  |  |  |
| COc1cc(/C=C/c2ccc(I)cc2)cc(OC)c1OC [DMU509] | 15 | 13 |  |  | 1 | 15 | 13 |  |
| COc1ccc(/C=C\c2cccc(OC)c2)cc1 [DMU241C] | 26 | > 100 | 29 | > 100 |  |  |  |  |
| COc1ccc(/C=C\c2cc(OC)c(OC)c(OC)c2)c(OC)c1 [DMU222] | 0.005 | 0.005 |  |  | 10 | 0.06 | 0.06 | IC50 (MCF7 (TCDD); MTT assay, 96 h incubation, cells induced with 10 nM TCDD for 24 h, read-out: IC50 MCF7 (TCDD)): 0.007 µM; IC50 (MCF7; MTT assay, 96 h incubation, 37 °C, means of quadruplicate): 0.07 µM |
| COc1cc(/C=C\c2ccc3c(c2)OCO3)cc(OC)c1OC [DMU299] | 0.05 | 20 | 0.05 | 20 | one |  |  | AF = activation factor = IC50 MCF7/MCF7 (TCDD) (MCF7 (TCDD)): one; TS = tumour selectivity = IC50 MCF10A/IC50 MDA468 (MDA468; listed as 299): 1 |
| COc1cc(/C=C/c2ccc(OC)c3ccccc23)cc(OC)c1OC [DMU569] | 8.6 | 4.5 | 30 | 40 | nine |  |  | TS = tumour selectivity = IC50 MCF10A/IC50 MDA468 (MDA468; listed as 569): 9 |
| CCOc1ccc(/C=C\c2cc(OC)c(OC)c(OC)c2)cc1 [DMU261] | 0.13 | 0.07 | 0.04 | 0.06 | 0.9 |  |  |  |
| COc1cc(/C=C/c2ccc(O)cc2)cc(OC)c1OC [DMU281] | 28 | 3.6 |  |  | 6 | 30 | 23 |  |
| COc1cc(/C=C/c2ccc(Br)cc2)cc(OC)c1OC [DMU557] | 8 | 7 | 7 | 20 | 3 |  |  |  |
| COc1cc(/C=C\c2ccc(Br)cc2)cc(OC)c1OC [DMU558] | 0.05 | 0.04 | 0.08 | 0.05 | 1 |  |  |  |
| COc1ccc(/C=C\c2cc(OC)c(OC)c(OC)c2)cc1 [DMU213] |  |  |  |  | four |  |  | IC50 (MCF7 (TCDD); Homo sapiens, MCF7, read-out: IC50 MCF7 (TCDD)): 0.44 µM; fold less toxic to MDA-468 compared to DMU212 (MDA468): 500 fold; IC50 (MDA468; 96 h): 0.5 µM; TS = tumour selectivity = IC50 MCF10A/IC50 MDA468 (MDA468; listed as 213): 4; IC50 (MCF7; Homo sapiens, MCF7, 96 h): 2.5 µM; IC50 (MCF10A; 96 h): 2 µM |
| COc1ccc(/C=C/c2cc(OC)c(O)c(OC)c2)cc1O [DMU293] | 100 | 10 |  |  | 10 | 100 | 110 |  |
| COc1cc(/C=C/c2ccc3c(c2)OCO3)cc(OC)c1OC [DMU220] | 2.3 | 0.99 | 3.4 | 3.9 | four |  |  | TS = tumour selectivity = IC50 MCF10A/IC50 MDA468 (MDA468; listed as 220): 4 |
| COc1ccc(/C=C/c2cc(OC)cc(OC)c2)cc1 [DMU271] | 14 | > 100 | 14 | > 100 |  |  |  |  |
| COc1ccc(/C=C/c2ccc(OC)c(OC)c2OC)cc1 [DMU547] | 1 | 4.5 | 80 | 20 | 4 |  |  |  |
| COc1ccc(/C=C\c2cccc(C)c2)cc1 [DMU216C] | 30 | > 100 |  |  |  | 26 | > 100 |  |
| COc1ccc(/C=C/c2cc(OC)c(O)c(OC)c2)cc1 [DMU291] | 20 | 1 |  |  | 100 | 20 | 100 |  |
| COc1ccc(/C=C\c2cc(OC)c(OC)c(OC)c2)cc1O [CA4, combretastatin A4, reference compound] | 0.002 | 0.003 |  |  | 0.7 | 0.002 | 0.002 |  |
| COc1ccc(/C=C\c2ccc(OC)cc2)cc1 [DMU265] | 20 | > 100 |  |  |  | 25 | > 100 |  |
| COc1cc(/C=C/c2ccc(Cl)cc2)cc(OC)c1OC [DMU555] | 100 | 12 | 100 | 8 | 0.7 |  |  |  |
| COc1cc(/C=C\c2ccc(I)cc2)cc(OC)c1OC [DMU510] | 0.06 | 0.006 |  |  | 2 | 0.06 | 0.01 |  |
| COc1ccc2cc(/C=C/c3cc(OC)c(OC)c(OC)c3)ccc2c1 [DMU567] | 42 | 0.04 |  |  | three | 100 | 0.11 | TS = tumour selectivity = IC50 MCF10A/IC50 MDA468 (MDA468; listed as 567): 3 |
